Assay results reported in PMC2783949 (Bioorganic & medicinal chemistry, 2009).
Entries after “also recorded” stand apart in the source; their conditions may differ.

Assays:
solid tumors = conditions: mice; cited from earlier work
murine leukemias = conditions: cited from earlier work
[1] = biological target: catalytic subunit of E. coli ATCase (Escherichia coli, UniProt P0A786); conditions: for Inhibition Constant (Ki): pH 8.3; for mode of inhibition: relative to carbamyl phosphate
[2] = Oxidation of H-phosphinate 2 into PALA, 31P-NMR monitoring; assay type: physicochemical; conditions: neutralized compound, over a period of two weeks

catalytic subunit of E. coli ATCase, sequence (P0A786 2-311): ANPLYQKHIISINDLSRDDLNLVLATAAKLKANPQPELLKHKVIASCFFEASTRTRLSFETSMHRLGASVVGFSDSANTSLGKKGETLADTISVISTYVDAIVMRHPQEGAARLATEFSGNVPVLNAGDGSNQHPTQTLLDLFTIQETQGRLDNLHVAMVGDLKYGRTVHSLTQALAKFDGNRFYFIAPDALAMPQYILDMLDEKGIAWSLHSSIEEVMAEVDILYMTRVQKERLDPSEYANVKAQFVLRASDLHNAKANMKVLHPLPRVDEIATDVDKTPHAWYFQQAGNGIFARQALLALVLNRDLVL

Row | SMILES | inhibition of ATCase (in words) [1] | other results
1 | O=C(O)C[C@H](NC(=O)CP(=O)(O)O)C(=O)O [Compound 1, N-phosphonacetyl-L-aspartate] |  | effect on solid tumors (solid tumors): eradicated solid tumors in mice; effect on murine leukemias (murine leukemias): murine leukemias were resistant
2 | O=C(O)C[C@H](NC(=O)C[PH](=O)O)C(=O)O [Compound 2] | good inhibitor; also recorded: submicromolar inhibitors | oxidation of 2 into PALA [2]: could not be detected
3 | O=C(O)C[C@H](NC(=O)C[PH](=O)CO)C(=O)O (some centres unmarked) [Compound 3] | submicromolar inhibitors | 
4 | O=C(O)C[C@@H](C(=O)O)N1CCP(=O)(O)CC1 [Compound 14] | totally inactive | Inhibition Constant (Ki) [1]: inactive
5 | O=C(O)C[C@@H](C(=O)O)N1CP(=O)(O)CC1=O [Compound 19, 2-(3-Hydroxy-3,5-dioxo-3l5-[1,3]azaphospholidin-1-yl)-succinic acid] | inactive | Inhibition Constant (Ki) [1]: inactive
6 | O=C(O)C[C@H](NC(=O)CP(=O)(O)CCO)C(=O)O [Compound 22] | significant inhibitory activity | mode of inhibition [1]: uncompetitive
7 | O=C(O)C[C@H](NC(=O)CP(=O)(O)CC(=O)O)C(=O)O [Compound 24] |  | mode of inhibition [1]: competitive inhibitor
8 | O=C(O)C[C@@H](C(=O)O)N1CCP(=O)(O)CC1=O [Compound 27, 2-(4-Hydroxy-2,4-dioxo-4λ[5]-[1,4]azaphosphinan-1-yl)-succinic acid] | significant inhibition; also recorded: micromolar-level inhibitor | Km(CP)/Ki ([1]; Km of carbamyl phosphate over Ki of inhibitor): 28
9 | O=C(O)C[C@H](NC(=O)OCP(=O)(O)O)C(=O)O [Compound 32, 2-Phosphonomethyl-oxycarbonylamino-succinic acid] | does not inhibit ATCase at all | Inhibition Constant (Ki) [1]: inactive
10 | O=C(O)C[C@H](NC(=O)CC(C(=O)O)C(=O)O)C(=O)O [Compound 38] | none of the carboxylates 38, 40, and 42 displayed any significant inhibition | 
11 | O=C(O)CC(=O)N[C@@H](CC(=O)O)C(=O)O [Compound 40] | none of the carboxylates 38, 40, and 42 displayed any significant inhibition; also recorded: inactive | 
12 | O=C(O)CCC(=O)N[C@@H](CC(=O)O)C(=O)O [Compound 42] | none of the carboxylates 38, 40, and 42 displayed any significant inhibition | 
13 | NC(=O)OP(=O)(O)O [carbamyl phosphate] |  | Km ([1]; substrate of ATCase): 28 µM
